# Data as given in US12150942B2, “Cerdulatinib for treating myeloma” (Alexion Pharmaceuticals, Inc., priority 2015, dated 2024).
# “Also recorded” adds a separate entry of the source.
# Tests used:
# [1] = system: multiple myeloma cell lines (LP1, OPM2, MOLP1, RPMI8226, U266B1, NCIH929); experiment: Cell proliferation (EdU as indicator) in multiple myeloma cell lines; assay type: cell-based; conditions: FGFR3 positive and FGFR3 negative MM cell lines
# Protocol: (§1) Six multiple myeloma cell lines were tested in this example for the expression level of p90RSK. The cell lines included LP1, OPM2, MOLP1, RPMI8226, U266B1, and NCIH929. Beta-actin was used as control, and the expression levels of FGF receptor 3 (FGFR3), phospho-S380 RSK. and RSK1/RSK2/RSK3 were also measured.
# (§2) Cerdulatinib was tested with same cell lines as used in Example 1. […] Also like BI-D1870, there was no relationship between the activity of cerdulatinib and the status of FGFR3.
# [2] = system: multiple myeloma cell lines (LP1, OPM2, MOLP1, RPMI8226, U266B1, NCIH929); experiment: Caspase3 activation (apoptosis) in multiple myeloma cell lines; assay type: cell-based; conditions: FGFR3 positive and FGFR3 negative MM cell lines; BI-D1870 at 1.2 μM, 2.5 μM, 5 μM
# Protocol: as §1
# A p90RSK inhibitor, BI-D1870 (see, e.g., Sapkota et al., Biochem J. 2007, 401(Pt 1): 29-38), was added to the medium for each cell line at three difference concentrations. 1.2 μM, 2.5 μM, and 5 μM.
# as §2
# [3] = Pharmacokinetics in 3+3 dose escalation study; assay type: in vivo, human
# Protocol: (§3) Methods: This experiment was a 3+3 dose escalation study with 28-day cycles and doses studied ranging from 15 mg to 100 mg QD, and up to 45 mg BID. PK, PD, and safety were monitored. Clinical response was assessed by standard criteria. The level of inhibition of SYK and JAK was determined by multiple whole blood assays measuring signaling via BCR, IL2, IL4, IL6, and GM-CSF. Serum markers of tumor burden-CCL3, CCL4, and other markers of inflammation-B2M, CRP, were also measured.
# SYK and JAK signaling = experiment: Whole blood assays of SYK and JAK signaling (BCR, IL2, IL4, IL6, GM-CSF); assay type: in vivo, human; conditions: 45 mg BID; steady-state Cmin; peripheral blood assays
# Protocol: as §3
# [4] = system: patients with CLL/SLL or B cell NHL; experiment: Clinical response by standard criteria in dose escalation study; assay type: in vivo, human; conditions: 28-day cycles
# Protocol: as §3
# (§4) Results: As of Jan. 7, 2016, 41 patients (pt) with CLL/SLL or B cell NHL were dosed. Median age was 67 years (range 23-85) and median prior therapies (tx) was 3 (range 1-8). […] The patient with grade 3 AST had tumor progression to the liver. The pancreatitis at 45 mg BID was considered at DLT and the cohort is expanding to approximately 6 patients.
# [5] = system: patients with CLL/SLL or B cell NHL; experiment: Safety in 3+3 dose escalation study; assay type: in vivo, human
# Protocol: as §3, §4
# [6] = system: DLBCL, MCL, Burkitt's lymphoma, ALL, MM and AML cells; experiment: Cytotoxicity (IC50) across cancer types; assay type: cell-based
# Text: The cytotoxicity of cerdulatinib was also compared to Comp A in other types of cancer cells.
# [7] = system: AML (Acute Myeloid Leukemia) cell lines; experiment: Cytotoxicity in AML cell lines; assay type: cell-based; conditions: four different AML cell lines; compared with Ruxolitinib and Comp A
# Protocol: The cytotoxicity of cerdulatinib in AML (Acute Myeloid Leukemia) was tested in four different cell lines.
# [8] = system: serum markers of inflammation (B2M, CRP); experiment: Serum markers of inflammation in dosed patients; assay type: in vivo, human; conditions: once daily 40-100 mg
# Protocol: as §3
SMILES,inhibition of cell proliferation (EdU as indicator) [1],activation of Caspase3 expression (indicator of apoptosis) [2],steady-state Cmin ([3]; 45 mg BID),change in systemic exposure ([3]; 45 mg BID relative to previous dose levels),"average steady state Cmin ([3]; 40-100 mg dose range, once daily) [nM]","Cmax ([3]; human, in vivo, 40-100 mg dose range, once daily, read-out: average steady state Cmax) [nM]","half-life ([3]; human, in vivo, patients, once daily dosing) [h]",solubility / dissolution ([3]; inferred from plateau of exposure over 40-100 mg),inhibition of SYK and JAK (SYK and JAK signaling),time at which responses occurred [4],"tolerability ([5]; 15 mg to 100 mg QD, up to 45 mg BID, 41 patients)",treatment emergent AEs of ≥ grade 3 deemed related to study drug ([5]; 30 mg),treatment emergent AEs of ≥ grade 3 deemed related to study drug ([5]; 45 mg),"treatment emergent AEs of ≥ grade 3 deemed related to study drug ([5]; 45 mg BID, considered DLT)",treatment emergent AEs of ≥ grade 3 deemed related to study drug ([5]; 50 mg),treatment emergent AEs of ≥ grade 3 deemed related to study drug ([5]; 65 mg),treatment emergent AEs of ≥ grade 3 deemed related to study drug ([5]; 100 mg),IC50 (cytotoxicity) compared to Comp A [6],cytotoxicity in AML cells [7],inhibition of serum markers of inflammation [8]
"CC(C)CCN1c2nc(Nc3cc(F)c(O)c(F)c3)ncc2N(C)C(=O)C1C (stereo not shown) [BI-D1870, reference compound]",dose-dependently inhibited cell proliferation,dose-dependently activated the expression of Caspase3,–,–,–,–,–,–,–,–,–,–,–,–,–,–,–,–,–,–
"CCS(=O)(=O)N1CCN(c2ccc(Nc3ncc(C(N)=O)c(NC4CC4)n3)cc2)CC1 [cerdulatinib, 4-(cyclopropylamino)-2-(4-(4-(ethylsulfonyl)piperazin-1-yl)phenylamino)pyrimidine-5-carboxamide]",dose-dependently inhibited cell proliferation,activated apoptosis; also recorded: dose-dependently activated caspase3 expression,approximately 1.5 μM,approximate doubling in exposure; also recorded: doubled,700 ± 200,1380,12 to 16,low pH solubility appeared to limit dissolution,complete inhibition,2 cycles of tx,well tolerated,"neutropenia (n=2), anemia (n=1), and pneumocystis pneumonia (grade 5, n=1)","anemia, AST increase, hypotension, thrombocytopenia (n=1 for each), and fatigue (n=2)",pancreatitis (n=1),"anemia, neutropenia, abdominal pain, pneumonia, and fatigue (n=1 for each)",diarrhea and fatigue (n=1 for each),nausea (n=1),more potent than Comp A,"more active than Ruxolitinib, a JAK inhibitor, and Comp A; also recorded: active in killing AML cells",Significant inhibition
